These results are taken from patent US20080226565A1, “Anticariogenic Proteins & Peptides & Saccharides” (priority 2004, published 2008).

The nature of assay [1]: Determination of the PF-value: Knoop micro hardness of tooth samples coated with product, then saliva and acetic acid (in-vitro). Also on record: species or system human. The source says:
The capacity to protect teeth against caries can be measured with a technique well known in the art (U.S. Pat. No. 5,279,814). Demineralization with acid, decreases the hardness of the tooth surface. The hardness can be quantified indirectly by measuring the depth of penetration of a needle in the surface (measurement of micro hardness). With this procedure, so called “Knoop” method, the needle is penetrating the surface under the pressure of constant weight and leaves a mark on the surface that allows the calculation of the depth of penetration. The more the tooth is suffering from demineralization, the softer its surface will get and the larger the depth of penetration will be (Knoop F., Peters C. G., Emerson W. B., A Sensitive Pyramidal Diamond Tool for Identation Measurments, J. Res. Natn. Bur. Stand. 23, 39-61 (1939).
The procedure includes the determination of the hardness of a human tooth sample with the Knoop method. Subsequently, the tooth is treated with an experimental protecting product outside the oral cavity.
It is cleaned softly with a paper towel until the coating is invisible.
Subsequently the tooth sample is submerged in a batch of human saliva in order to simulate the conditions in the oral cavity. After removal from the saliva batch (after 30 min.) it is treated with acid over a constant time period of 30 min. at 37° C. The acid is washed away, the tooth is dried on air and the hardness is measured again. The change in hardness (delta P in μm) is obtained by comparing with the hardness of the tooth before treatment. This experiment is repeated on other tooth samples. The effect of acid on unprotected teeth is obtained by carrying out the same procedure but without the use of an experimental protecting product (delta Pa). The protecting capacity (“PF” protection factor) of an experimental protecting compound can be defined as: […]
The ability of a product to protect teeth (PF-value) is determined with the Knoop method. A tooth sample, size 3×3×3 mm is cut from a human tooth and embedded into polymerizing resin in such a way that the surface of the tooth sample appears on the surface of the (resin) cube after the resin has become solid. The surface of the tooth is mechanically polished with rotating silicon carbide abrasive paper (Struers P1200-P2400-P4000) and the micro hardness of the enamel is determined with a Knoop diamant needle (Leitz-Wetzlar;
microdurometer “Durimet”; weight 50 gr; penetration-time: 30 seconds (Collys et al., J. Dent. Res. 1990; 69: 458-462)).
The penetration leaves a mark on the tooth surface, which is related to the depth of penetration (μm) and which can be analyzed under the microscope. […] The determination of the depth of penetration is repeated six times on each of the tooth samples and the average value is calculated. In order to determine the effect of acid on the hardness of the surface, use is made of an acetic acid buffer from Merck (pH 5; 0.1N). One drop of acid is positioned on the enamel for a period of 30 minutes at 37° C. The sample is cleaned with demineralized water and dried. The hardness is measured again according to the method of Knoop. This procedure is repeated 4 times, which means that the sample has been subjected to acid for a total period of two hours.
A graph (Y: penetration depth μm; X: 5 treatment stages) can be made on the basis of 5 average values (each of them based on six measurement), one obtained before treatment with acid, and the other 4 obtained after each of the 4 treatment-stages with acid. A logaritmic regressionline is calculated.

Assay [2] is described as follows: In-vivo: tooth samples treated with peptide, 12 hours in the oral cavity, then acetic acid, Knoop hardness. Also on record: species or system human. Particulars: for B: Average initial hardness of the tooth surface (st. dev.): before treatment. As for the experimental part: In another experiment, 126 sterilized tooth samples where treated with a variety of peptides, fixed to the device and positioned after the lower jaw in the oral cavity of 5 volunteers. The device remained in the oral cavity for a period of 12 hours after which the teeth where removed, cleaned and subjected to a drop of acetic acid (0.1N, 30 min., 37° C). Subsequently the acid was removed, the teeth where cleaned and the hardness was measured (Knoop method). The depth of penetration increased 8.82 μm, 5.40 μm, 5.32 μm and 3.77 μm respectively for teeth treated as blanco with 4.2% casein phosphopeptide e-polylysine copolymer, 7.5% phosvitin and with 4.2% bisphosphonylated e-polylysine. The p-values are respectively 0.000, 0.000 and 0.004 for casein phosphopeptide e-polylysine copolymer, bisphosphonylated e-polylysine and phosvitin.
Tooth samples have been cut in horizontal slices (thickness: 0.3 to 1 mm) with a Leitz 1600 tooth cutter with horizontal cutting blade; the slices are cut manually (with a bore) into small tooth samples that contain a small part of the original tooth surface. The tooth sample is positioned in a small plastic tube, that has been cut from a long plastic tube with 6 mm external diameter. The length of the tube is 3 to 6 mm. The inner part of the tube is filled with a polymer that hardens under light (Photoclearfil Bright; Kuraray). The tooth sample is positioned in the soft polymer inside the tube, in such a way that the original tooth surface is just surfacing above the tube. Finally the polymer is hardened with a light source. The tooth surface is polished with Struers silicon carbid paper (800-4000) and the hardness is measured 5 times on each of the samples under the Letiz Wetzlar microscope (weight on needle: 50 p). Tooth samples with a maximum average depth of penetration of 43 μm are retained for use in the oral cavity.
The tooth-samples are fixed to a device that has been described in the chapter “Description of the invention ( chapter: In-vivo experiments)” and the device is positioned in the oral cavity after the lower jaw.
A drop from a solution containing either, e-polylysine, CPP, bisphoshphonylated e-polylysine, casein phosphopeptide epsilon-polylysine copolymer or partially hydrolysed phosvitin has been positioned at the surface of tooth samples for a period of 30 minutes at 37 C.; the drop was removed and the procedure was repeated once more. All solutions contained also 3.1% CaCl2.2H2O and 1.7% KH2PO4 (except for the one containing e-polylysine).
The tooth surface was cleaned with a soft paper towel until it was visibly clean. Four such tooth samples where fixed to the device and located in the oral cavity behind the lower jaw. They resided in the oral cavity for a period of 12 hours (only to be removed during eating). Subsequently, they where removed, cleaned and the tooth surface was treated with a drop of acetic acid (0.1N, 30 min., 37° C.); the acid was removed, the tooth was washed with deionized water and the hardness was evaluated.
A: type of peptide ingredient in the solution (% on a w/w basis versus water). (*): the teeth where submerged (30 min.) in a saliva batch and dried afterwards on air, before they where treated with a solution that contained bisphosphonylated e-polylysine. B: Average initial hardness of the tooth surface; μm (st. dev.) C: Average hardness after treatment, after residing in the oral cavity and treatment with acid D: The average change in hardness (C−B) E: p-value (against blanco) of the Mann-Whitney statistical test F: the number of tooth samples that where treated with a specific formulation; hardness on each of the tooth samples was measured five times and an average value was calculated; most often 4 tooth samples per person; 5 volunteers participated to the experiment; the 132 tooth samples where randomized into groups (of 4 teeth) with the same average hardness value.

[3] abbreviates: 4.2% w/w solution, 12 hours oral cavity, acetic acid 0.1N 30 min.

“Epsilon-polylysine (elys; e-polylysine) [Product 6]”: in assay [1] (3.6% product/water w/w, with CaCl2.2H2O and KH2PO4), the PF factor is 70. Also, in assay [2] (setting [3]), the “C: Average hardness after treatment, after residing in the oral cavity and treatment with acid” value (“C: Average hardness after treatment” below) is 47.81 (3.67) μm; the “D: average change in hardness (C−B)” value is listed as 6.93 μm. Also, in assay [2] (group for 4.2% solution), the “B: Average initial hardness of the tooth surface (st. dev.)” value (“B: Average initial hardness” for short) is listed as 40.88 (0.91) μm.

“bisphosphonylated epsilon-polylysine [bisphosphonylated e-polylysine]” showed a PF factor in assay [1] (1.5% product/water w/w) of 99. The figures for the “D: average change in hardness (C−B)” value in assay [2] (4.2% solution (*): teeth submerged 30 min in saliva before treatment) and in assay [2] (setting [3]) were 3.29 μm and 3.77 μm, respectively. Moreover, the “C: Average hardness after treatment” value in assay [2] (4.2% solution (*): teeth submerged 30 min in saliva before treatment, 12 hours oral cavity, acid) is listed as 44.05 (2.92) μm; in assay [2] (setting [3]), 44.29 (2.08) μm. The entries for the “B: Average initial hardness” value in assay [2] (group for 4.2% solution (*)) and in assay [2] (group for 4.2% solution) were 40.76 (0.73) μm and 40.52 (0.62) μm, respectively.

Take “casein phosphopeptide epsilon-polylysine copolymer [(CPP x elys)n]”: the PF factor in assay [1] (7.8% product/water w/w) is given as 94. The “C: Average hardness after treatment” value is on record as 46.21 (1.94) μm in assay [2] (setting [3]) and 42.92 (1.43) μm in assay [2] (7.8% w/w solution, 12 hours oral cavity, acid). Besides, the “D: average change in hardness (C−B)” value came to 5.40 μm in assay [2] (setting [3]) and 2.41 μm in assay [2] (7.8% w/w solution). In addition, the “B: Average initial hardness” value is 40.81 (0.68) μm in assay [2] (group for 4.2% solution) and 40.51 (1.55) μm in assay [2] (group for 7.8% solution).
